Reference: patent US6747061B2, “N-substituted dithiocarbamates for the treatment of biological disorders” (AtheroGenics, Inc., priority 2000, dated 2004)
Counter-ions that a name gives are not always drawn.

What follows are molecules tested on VCAM-1 (assay: VCAM-1 assay: enzyme immunoassay of TNF-α induced VCAM-1 expression in endothelial cells). Conditions: HAEC, TNF-α 1 ng/ml, approximately 16 hours; read-out: VCAM-1 IC50.
Type: cell-based, Human
Method: The VCAM-1 assay is an enzyme immunoassay to detect tumor necrosis factor alpha (TNF-α) induced Vascular Adhesion Molecule (VCAM-1) expression in endothelial cells.
Human endothelial cells (HAEC) were purchased from Clonetics and maintained in EGM media (Clonetics) supplemented with 5% fetal bovine serum (FBS). In a typical experiment, cells were seeded in 96-well plates. The next day cells were stimulated with TNF-α (1 ng/ml) purchased from Boehringer Mannheim in the presence or absence of compounds dissolved in dimethylsulphoxide (DMSO). To establish a dose curve for each compound, four concentrations in 2 fold increments were used. Cells were exposed to TNF-α and compounds for approximately 16 hours. The next day, cells were examined under microscope to score for visual signs of toxicity.
Media was discarded and the cells were washed once with Hanks buffered saline solution (HBSS)/phosphate buffered solution (PBS) 91:1). Primary mouse monoclonal antibody against VCAM-1 purchased from Southern Biotechnology Associates (0.25 μg/ml in HBSS/PBS+5% FBS) was added and incubated at 37° C. for 30 minutes. Cells were washed with HBSS/PBS three times, and secondary antibody horse radish peroxidase (HRP)-conjugated goat anti-mouse IgG purchased from Southern Biotechnology Associates (1:500 in HBSS/PBS+5% FBS) was added and incubated at 37° C. for 30 minutes. Cells were washed with HBSS/PBS four times and peroxidase substrate 3.3′,5,5′-tetramethyl-benzidine (TMB) was added and incubated in the dark at room temperature until there was adequate blue color development. The length of incubation time was typically 5-15 minutes. 2 N sulfuric acid was added to stop the color development and the data was collected by reading the absorbance at O.D. 450 nm. The result was expressed as the percentage of control sample (cells stimulated by TNF without any compound).

SMILES	IC50
NC(CSC(=S)NCc1ccccc1)C(=O)O (centres unmarked) [(2-Amino-3-benzylthiocarbamoylsulfanyl)propionic acid]	7 µM
CCOC(=O)CCCNC(=S)SCC1CCCO1 (centres unmarked) [4-(Tetrahydrofuran-2-ylmethylsulfanyllthio-carbonylamino)butyric acid ethyl ester]	5 µM

Same assay, conditions: Homo sapiens, Endothelial cell, 16 h, read-out: VCAM-1 IC50 (μM)

SMILES	IC50
CC(C)CNC(=S)SCc1ccc(Cl)cc1Cl [Isobutyldithiocarbamic acid 2,4-dichlorobenzyl ester]	32 µM
COC(=O)CCCSC(=S)NCCc1cc2ccccc2[nH]1 [4-[2-(1H-Indol-2-yl)ethylthiocarbamoyl-sulfanyl]butyric acid methyl ester]	5 µM
S=C(NCc1ccc(Cl)cc1Cl)SCc1ccc(Cl)cc1Cl [(2,4-dichlorobenzyl)dithiocarbamic acid 2,4-dichlorobenzyl ester]	8 µM
COC(=O)CCSC(=S)NCc1ccco1 [3-(Furan-2-ylmethylthiocarbamoyl-sulfanyl)propionic acid methyl ester]	6 µM

Same assay, conditions: Homo sapiens, Endothelial cell; HAEC, TNF-α 1 ng/ml, approximately 16 hours; read-out: VCAM-1 IC50

IC50	SMILES
14 µM	CNC(=S)SCCC(=O)OC [II: X=H, Y′=C(O)OCH3, N=1, m=2, 3-(Methylthiocarbamoylsulfanyl)propionic acid methyl ester]
37 µM	CCN(CC)CCNC(=S)SCCC(=O)OC [3-(2-Diethylamino-ethylthiocarbamoylsulfanyl)-propionic acid methyl ester]
18 µM	COC(=O)CCCSC(=S)NCCC1CCCN1C (centres unmarked) [4-[2-(1-Methylpyrrolidin-2-yl)ethylthiocarbamoyl-sulfanyl]butyric acid methyl ester]
7 µM	O=C(O)CCCSC(=S)NCC1CCCO1 (centres unmarked) [III: Y′=(CH2)3C(O)OH, 4-(Tetrahydrofuran-2-ylmethylthiocarbamoylsulfanyl)-butyric acid]
12 µM	C=CCNC(=S)SCCN [Allyldithiocarbamic acid 2-aminoethyl ester hydrochloride]
40 µM	COC(=O)CCCSC(=S)NCC1CCCCC1 [4-(Cyclohexylmethylthiocarbamoylsulfanyl)butyric acid methyl ester]
3 µM	COC(=O)CCSC(=S)NCC1CCCO1 (centres unmarked) [III: Y′=(CH2)2C(O)OCH3, 3-(Tetrahydrofuran-2-ylmethylthiocarbamoylsulfanyl)-propionic acid methyl ester]
3 µM	COC(=O)CCCSC(=S)NC[C@H]1CCCO1 [4-((R)-Tetrahydrofuran-2-ylmethylthiocarbamoyl-sulfanyl)butyric acid methyl ester]
30 µM	C=CCNC(=S)SCCCC(=O)OC [4-(Allylthiocarbamoylsulfanyl)butyric acid methyl ester]
3 µM	N#CCCCSC(=S)NCC1CCCO1 (centres unmarked) [III: Y′=(CH2)3CN, (Tetrahydrofuran-2-ylmethyl)dithiocarbamic acid 3-cyano-propyl ester]
30 µM	CCCCCCCCCCCCSC(=S)NCCc1ccccc1 [Phenethyldithiocarbamic acid dodecyl ester]
10 µM	COC(=O)CSC(=S)NCC1CCCO1 (centres unmarked) [III: Y′=CH2C(O)OCH3, (Tetrahydrofuran-2-ylmethylthiocarbamoylsulfanyl)acetic acid methyl ester]
18 µM	CNC(=S)Sc1ccc(F)cc1F [Methyldithiocarbamic acid 2,4-difluorophenyl ester]
25 µM	COC(=O)CCCSC(=S)NCc1ccccc1 [4-(Benzylthiocarbamoylsulfanyl)butyric acid methyl ester]
6 µM	COCCCNC(=S)Sc1ccc(Cl)cc1 [(3-Methoxypropyl)dithiocarbamic acid 4-chlorophenyl ester]
11 µM	COC(=O)CCCCCSC(=S)NCC1CCCO1 (centres unmarked) [III: Y′=(CH2)5C(O)OCH2CH3, 6-(Tetrahydrofuran-2-ylmethylthiocarbamoyl-sulfanyl)hexanoic acid methyl ester]
50 µM	CCOC(=O)NC(=S)SCCC(=O)OC [3-(Ethoxycarbonylthiocarbamoylsulfanyl)propionic acid methyl ester]
6.5 µM	CSC(=S)NCC1CCCO1 (centres unmarked) [III: Y′=CH3, (Tetrahydrofuran-2-ylmethyl)dithiocarbamic acid methyl ester]
11 µM	COCCNC(=S)SCCCC(=O)OC [II: X=CH3O, Y′=C(O)OCH3, N=2, m=3, 4-(2-Methoxy-ethylthiocarbamoylsulfanyl)butyric acid methyl ester]
7 µM	CC(=O)CCCSC(=S)NCC1CCCO1 (centres unmarked) [III: Y′=(CH2)3C(O)CH3, (Tetrahydrofuran-2-ylmethyl)dithiocarbamic acid 4-oxo-pentyl ester]
2 µM	COc1cccc(CNC(=S)SCC(=O)C(C)(C)C)c1 [(3-Methoxybenzyl)dithiocarbamic acid 3,3-dimethyl-2-oxo-butyl ester]
3 µM	COC(=O)CCCSC(=S)NC[C@@H]1CCCO1 [4-((S)-Tetrahydrofuran-2-ylmethylthiocarbamoyl-sulfanyl)butyric acid methyl ester]
1.5 µM	S=C(NCc1cccnc1)SCc1cc(Cl)sc1Cl [(Pyridin-3-ylmethyl)dithiocarbamic acid 2,5-dichloro-thiophen-3-ylmethyl ester]
